# Counter-ions that a name gives are not always drawn.
# Assays:
# Oxytocin receptor = target: T1, Oxytocin receptor (Rattus norvegicus, UniProt P70536); experiment: Oxytocin receptor binding assay ([3H]-oxytocin, rat uterine muscle membrane); conditions: for IC50: 25° C., one hour, pH 8.0; for inhibition at 10 µM: 10^-5 M test compound, read-out: Inhibitory Rate (%) at 10^-5 M (oxytocin receptor binding assay)
# T1 construct: from tissue; host or cells: rat uterine muscle membrane (diethylstilbestrol-treated)
# T1 sequence (P70536 1-388): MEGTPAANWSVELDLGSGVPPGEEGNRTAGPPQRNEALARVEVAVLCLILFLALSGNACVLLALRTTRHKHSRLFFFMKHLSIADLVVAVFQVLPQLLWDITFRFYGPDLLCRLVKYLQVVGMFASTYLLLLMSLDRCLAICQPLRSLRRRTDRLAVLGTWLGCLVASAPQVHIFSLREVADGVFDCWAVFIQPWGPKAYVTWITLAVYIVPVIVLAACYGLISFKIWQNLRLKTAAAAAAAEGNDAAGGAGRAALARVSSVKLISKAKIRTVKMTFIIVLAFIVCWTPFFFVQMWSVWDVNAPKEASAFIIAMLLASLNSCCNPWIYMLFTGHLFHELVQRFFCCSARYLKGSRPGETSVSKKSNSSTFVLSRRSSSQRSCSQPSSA
# Description: Experiment 3: Oxytocin receptor binding assay
# According to the method of W. Y. Chan et al. [Endocrinology, 126, 2095-2101 (1990)], uterine muscle is taken out from a rat which has previously been injected subcutaneously with diethylstilbestrol the day before, and homogenized, which is used as a membrane preparation. The membrane preparation (0.2 mg), [^3 H]-oxytocin (100000 dpm, 10^-9 M), a test compound (10^-9 -10^-5 M) are incubated at 25° C. for one hour in 100 mM Tris-HCl buffer (pH 8.0, 250 μl) containing a 5 mM MgCl2, 1 mM MEDTA and 0.1% BSA. The mixture is filtered through the glass filter (GF/B) so as to separate the membrane preparation binding with [^3 H]-oxytocin, and then, washed twice with the buffer (5 ml). This glass filter is put into a vial and mixed with Aquasole (liquid scintillation cocktail). The amount of [^3 H]-oxytocin binding with the membrane is measured by liquid scintillation counter. The rate of the inhibitory effect of the test compound is estimated according to the following equation.
# Inhibitory Rate (%)=100-[(C1 -B)/(C0 -B)]×100
# C1 : The amount of [^3 H]-oxytocin binding with the membrane in the presence of a test compound (known amount)
# C0 : The amount of [^3 H]-oxytocin binding with the membrane in the absence of a test compound
# B: The amount of [^3 H]-oxytocin binding with the membrane in the presence of the excess amount of oxytocin (5×10^-6 M).
# The results are expressed as IC50 value, which is the concentration of the test compound required to achieve the inhibitory rate in the rate of 50%.
# V1 receptor = V1 receptor (Rattus norvegicus, UniProt P30560); experiment: biochemical; conditions: rat liver plasma membrane, [3H]-Arg-vasopressin, 37° C., 10 minutes, pH 8.0; read-out: IC50 in V1 receptor binding assay
# Description: Experiment 1: V1 receptor binding assay
# Using rat liver plasma membrane preparations prepared according to Ichihara's method [cf: Akira Ichihara, J. Bio. Chem., 258, 9283 (1983)], the plasma membrane (50000 dpm, 2×10^-10 M) of [^3 H]-Arg-vasopressin and a test compound (60 μg, 10^-8 to 10^-4 M) are incubated at 37° C. for 10 minutes in 100 mM Tris-HCl buffer (pH: 8.0) (250 μl) containing 5 mM MgCl2, 1 mM EDTA and 0.1% BSA. After incubation, the mixture is filtered three times using the glass filter (GF/F) so as to separate the membrane preparation binding with vasopressin and then washed with the buffer (5 ml). This glass filter is taken out and mixed with liquid scintillation cocktail. The amount of [^3 H]-vasopressin binding with the membrane is measured by liquid scintillation counter and the rate of the inhibitory effect of the test compound is estimated according to the following equation. [formula] C1 : The amount of [^3 H]-vasopressin binding with the membrane in the presence of the test compound (known amount)
# (§1) C0 : The amount of [^3 H]-vasopressin binding with the membrane in the absence of the test compound
# (§2) B1 : The amount of [^3 H]-vasopressin binding with the membrane in the presence of the excess amount of vasopressin (10^-6 M)
# (§3) The results are expressed as IC50 value, which is the concentration of the test compound required to achieve the inhibitory effect in the rate of 50%.
# V2 receptor = target: T2, V2 receptor (Rattus norvegicus, UniProt Q00788); experiment: biochemical; conditions: rat kidney plasma membrane, [3H]-Arg-vasopressin, 4° C., pH 8.0, read-out: IC50 in V2 receptor binding assay
# T2 construct: Using rat kidney plasma membrane preparations; from tissue; host or cells: rat kidney plasma membrane
# Description: Experiment 2: V2 receptor binding assay
# Using rat kidney plasma membrane preparations prepared according to O. Hechter's method [cf: J. Bio. Chem., 253, 3211 (1978)], the plasma membrane (100000 dpm, 4×10^-10 M) of [^3 H]-Arg-vasopressin and a test compound (0.6 mg, 10^-10 to 10^-5 M) are incubated at 4° C. for 3 hours in 100 mM Tris-HCl buffer (pH: 8.0) (250 μl) containing 5 mM MgCl2, 1 mM EDTA and 0.1% BSA. After incubation, the mixture is filtered using the glass filter (GF/F) so as to separate the membrane preparation binding with vasopressin and then washed twice with the buffer (each 5 ml). This glass filter is taken out and mixed with liquid scintillation cocktail. The amount of [^3 H]-vasopressin binding with the membrane is measured by liquid scintillation counter and the rate of the inhibitory effect of the test compound is estimated according to the following equation. [formula] C1 : The amount of [^3 H]-vasopressin binding with the membrane in the presence of the test compound (known amount)
# as §1, §2, §3
# T2 sequence (Q00788 whole entry): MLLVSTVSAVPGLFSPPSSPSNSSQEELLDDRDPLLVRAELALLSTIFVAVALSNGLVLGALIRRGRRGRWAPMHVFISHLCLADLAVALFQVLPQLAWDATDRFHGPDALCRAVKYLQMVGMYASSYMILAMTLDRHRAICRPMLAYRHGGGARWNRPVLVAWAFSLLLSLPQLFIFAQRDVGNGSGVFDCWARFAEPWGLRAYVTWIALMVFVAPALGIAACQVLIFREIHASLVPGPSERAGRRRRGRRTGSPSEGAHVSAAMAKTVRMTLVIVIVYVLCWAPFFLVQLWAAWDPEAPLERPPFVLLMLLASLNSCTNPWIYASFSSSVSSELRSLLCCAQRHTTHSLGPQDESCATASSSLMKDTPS
# V1 receptor, sequence (P30560 whole entry): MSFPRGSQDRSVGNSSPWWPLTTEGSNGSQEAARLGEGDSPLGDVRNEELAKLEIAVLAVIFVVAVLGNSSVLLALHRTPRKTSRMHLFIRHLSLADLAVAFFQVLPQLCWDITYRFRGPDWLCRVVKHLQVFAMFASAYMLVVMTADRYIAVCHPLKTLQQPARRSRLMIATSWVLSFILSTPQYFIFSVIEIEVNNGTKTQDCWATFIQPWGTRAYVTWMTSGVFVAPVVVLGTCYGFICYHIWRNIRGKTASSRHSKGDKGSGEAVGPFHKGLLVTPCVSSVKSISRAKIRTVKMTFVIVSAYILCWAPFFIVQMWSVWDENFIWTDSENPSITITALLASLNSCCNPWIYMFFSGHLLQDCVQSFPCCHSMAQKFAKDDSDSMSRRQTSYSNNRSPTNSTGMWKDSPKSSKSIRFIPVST
Structure (SMILES),IC50 (Oxytocin receptor),IC50 (V1 receptor),IC50 (V2 receptor),inhibition at 10 µM (Oxytocin receptor)
Cc1ccccc1C(=O)Nc1ccc(C(=O)N2CCCC(CC(=O)N3CCCCC3)c3cc(Cl)ccc32)cn1 (stereo not drawn) [Compound of Ex. 104],510 nM,38 nM,24 nM,–
O=C(Nc1ccc(C(=O)N2CCCCc3cc(Cl)ccc32)cn1)c1ccccc1OCCO [Compound of Ex. 83],6600 nM,71 nM,430 nM,–
O=C(O)CC1CCCN(C(=O)c2ccc(NC(=O)c3ccccc3Br)nc2)c2ccc(Cl)cc21 (stereo not drawn) [Compound of Ex. 101],3500 nM,490 nM,33 nM,–
O=C(Nc1ccc(C(=O)N2CCCCc3cc(Cl)ccc32)cn1)c1ccccc1Cl [Compound of Ex. 44],307 nM,8 nM,11 nM,–
CC(C)NCCOc1ccccc1C(=O)Nc1ccc(C(=O)N2CCCCc3cc(Cl)ccc32)cn1 [Compound of Ex. 91],–,–,–,38%
CN1CCN(C(=O)CCCOc2ccccc2C(=O)Nc2ccc(C(=O)N3CCCCc4cc(Cl)ccc43)cn2)CC1 [Compound of Ex. 89],7300 nM,–,–,–
CNC1CCCN(C(=O)c2ccc(NC(=O)c3ccccc3Cl)nc2)c2ccc(Cl)cc21 (stereo not drawn) [Compound of Ex. 80],1000 nM,–,–,–
O=C(Nc1ccc(C(=O)N2CCCCc3cc(Cl)ccc32)cn1)C1CCCCC1 [Compound of Ex. 46],360 nM,–,–,–
CCOC(=O)COc1ccccc1C(=O)Nc1ccc(C(=O)N2CCCCc3cc(Cl)ccc32)cn1 [Compound of Ex. 82],9700 nM,–,–,–
O=C(O)CCCOc1ccccc1C(=O)Nc1ccc(C(=O)N2CCCCc3cc(Cl)ccc32)cn1 [Compound of Ex. 86],–,–,–,17%
COC1CCCN(C(=O)c2ccc(NC(=O)c3ccccc3Cl)nc2)c2ccc(Cl)cc21 (stereo not drawn) [Compound of Ex. 72],440 nM,–,–,–
"Cc1ccccc1C(=O)Nc1ccc(C(=O)N2CCCC(OCCO)c3cc(Cl)ccc32)cn1 (stereo not drawn) [Compound of Ex. 36, 7-chloro-5-(2-hydroxyethoxy)-1-[6-(2-methylbenzoylamino)nicotinoyl]-2,3,4,5-tetrahydro-1H-benzazepine]",–,43 nM,3 nM,–
"CN(C)CCOc1ccccc1C(=O)Nc1ccc(C(=O)N2CCCCc3cc(Cl)ccc32)cn1 [Compound of Ex. 96, 7-chloro-1-{6-[2-(2-dimethylaminoethoxy)benzoyl-amino]nicotinoyl}-2,3,4,5-tetrahydro-1H-benzazepine dihydrochloride]",–,43 nM,300 nM,–
Cc1ccccc1CC(=O)Nc1ccc(C(=O)N2CCCC(O)c3cc(Cl)ccc32)cn1 (stereo not drawn) [Compound of Ex. 33],–,7 nM,3 nM,–
Cc1ccccc1C(=O)Nc1ccc(C(=O)N2CCN(C)Cc3cc(Cl)ccc32)cn1 [Compound of Ex. 47],–,150 nM,89 nM,–
O=C(Nc1ccc(C(=O)N2CCCC(O)c3cc(Cl)ccc32)cn1)c1cccs1 (stereo not drawn) [Compound of Ex. 31],–,57 nM,120 nM,–
CN1CCCN(C(=O)c2ccc(NC(=O)c3ccccc3Cl)nc2)c2ccc(Cl)cc21 [Compound of Ex. 53],–,55 nM,19 nM,–
Cc1ccccc1C(=O)Nc1ccc(C(=O)N2CCCC(O)(CO)c3cc(Cl)ccc32)cn1 (stereo not drawn) [Compound of Ex. 34],–,66 nM,16 nM,–
O=C(Nc1ccc(C(=O)N2CCCC(O)c3cc(Cl)ccc32)cn1)c1ccccc1[N+](=O)[O-] (stereo not drawn) [Compound of Ex. 29],–,24 nM,11 nM,–
"CC(=O)NCCOC1CCCN(C(=O)c2ccc(NC(=O)c3ccccc3C)nc2)c2ccc(Cl)cc21 (stereo not drawn) [Compound of Ex. 38, 7-chloro-5-(2-acetylaminoethoxy)-1-[6-(2-methylbenzoylamino)nicotinoyl]-2,3,4,5-tetrahydro-1H-benzazepine]",–,26 nM,3 nM,–
Cc1ccccc1C(=O)Nc1ccc(C(=O)N2CCCC(O)c3cc(Cl)ccc32)cn1 (stereo not drawn) [Compound of Ex. 25],–,14 nM,4 nM,–
O=C(Nc1ccc(C(=O)N2CCCC(NC3CC3)c3cc(Cl)ccc32)cn1)c1ccccc1Cl (stereo not drawn) [Compound of Ex. 78],–,17 nM,10 nM,–
Cc1ccccc1C(=O)Nc1ccc(C(=O)N2CCCC(O)c3cc(Cl)ccc32)nc1 (stereo not drawn) [Compound of Ex. 50],–,78 nM,61 nM,–
Cc1ccccc1C(=O)Nc1ccc(C(=O)N2CCCC(NC3CC3)c3cc(Cl)ccc32)cn1 (stereo not drawn) [Compound of Ex. 77],1800 nM,–,–,–

# Other lines, results leading:
IC50 (Oxytocin receptor),IC50 (V1 receptor),IC50 (V2 receptor),inhibition at 10 µM (Oxytocin receptor),Structure (SMILES)
320 nM,11 nM,3 nM,–,O=C(Nc1ccc(C(=O)N2CCCC(CC(=O)N3CCCC3)c3cc(Cl)ccc32)cn1)c1ccccc1Cl (stereo not drawn) [Compound of Ex. 114]
1200 nM,–,–,–,O=C(Nc1ccc(C(=O)N2CCCC(O)(CO)c3cc(Cl)ccc32)cn1)c1ccccc1Cl (stereo not drawn) [Compound of Ex. 145]
410 nM,–,–,–,CN1CCN(C(=O)CC2CCCN(C(=O)c3ccc(NC(=O)c4ccccc4Cl)nc3)c3ccc(Cl)cc32)CC1 (stereo not drawn) [Compound of Ex. 107]
320 nM,20 nM,3.2 nM,–,Cc1ccccc1C(=O)Nc1ccc(C(=O)N2CCCC(CCO)c3cc(Cl)ccc32)cn1 (stereo not drawn) [Compound of Ex. 123]
350 nM,–,–,–,CCN(CC)CCN(C)C(=O)CC1CCCN(C(=O)c2ccc(NC(=O)c3ccccc3Br)nc2)c2ccc(Cl)cc21 (stereo not drawn) [Compound of Ex. 120]
–,16 nM,4.1 nM,–,Cc1ccccc1C(=O)Nc1ccc(C(=O)N2CCCC(CCNC(C)C)c3cc(Cl)ccc32)cn1 (stereo not drawn) [Compound of Ex. 139]
–,8.4 nM,2.7 nM,–,CCN(CC)CCN(C)C(=O)COC1CCCN(C(=O)c2ccc(NC(=O)c3ccccc3Cl)nc2)c2ccc(Cl)cc21 (stereo not drawn) [Compound of Ex. 175]
–,7.8 nM,8 nM,–,O=C(Nc1ccc(C(=O)N2CCCC(OCCNC3CCCC3)c3cc(Cl)ccc32)cn1)c1ccccc1Cl (stereo not drawn) [Compound of Ex. 187]
–,12 nM,3.1 nM,–,"O=C(Nc1ccc(C(=O)N2CCCC(CC(=O)N3CCNCC3)c3cc(Cl)ccc32)cn1)c1ccccc1Cl (stereo not drawn) [Compound of Ex. 116, 7-chloro-5-(1-piperazinyl)carboxymethyl-1-[6-(2-chlorobenzoylamino)nicotinoyl]-2,3,4,5-tetrahydro-1H-benzazepine]"
–,9 nM,3 nM,–,CCN(CC)CCN(C)C(=O)CC1CCCN(C(=O)c2ccc(NC(=O)c3ccccc3C)nc2)c2ccc(Cl)cc21 (stereo not drawn) [Compound of Ex. 105]

# Source: patent US5498609A, “Benzoazepinyl compounds as oxytocin and vasopressin antagonists” (Otsuka Pharmaceutical Company, Limited, priority 1992, dated 1996)
